These results are taken from patent US11866430B2, “Naphthyridinone compounds useful as T cell activators” (priority 2018, dated 2024).

Where two headings read alike, the source gives them in different places.

The target of test [1] is human DGKα (Homo sapiens (Human), UniProt P23743). In words: DGKα LIPGLO assay (extruded liposome substrate). The format is biochemical. The essentials: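 Human full-length DGKα, His-tagged and produced in Sf9 cells, assayed at 20 nM (4× stock) on extruded liposomes of PS, 0.25 mM DAG and 2.75 mM PC, preincubated 10 min. Reaction started with 300 μM ATP (stock) and ran 1 h in MOPS pH 7.5/MgCl2/CaCl2/DTT buffer.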

In test [2] the test system is Jurkat AP1-luciferase Reporter. Kind of test: DGK AP1-Reporter Assay. The format is cell-based. The essentials: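 Jurkat cells carrying a lentiviral AP1-luciferase reporter received 30 nl compound per well for 20 min at 37 °C and 5% CO2. They were then stimulated for 6 h with anti-CD3 solution at 0.4 μg/mL; reference wells received 4 μg/mL and unstimulated wells medium only. Readout was Steady-Glo luciferase luminescence (RLU).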
A general note: In a reporter assay the amount or activity of a reporter protein is the signal.

Test [3] has as its system OT-1 antigen-specific CD8+ T cells with MC38 tumor cells. In words: Murine Cytotoxic T Lymphocyte Assay (IFN-γ). The conditions noted are these: Mus musculus, MC-38, read-out: msCTL INF-γ IC50, murine CTL IFN-γ (table title reads INF-γ Whole Blood Normalized Agonist EC50). The test is classed as cell-based, mouse.
Setting [4] is: Homo sapiens, Jurkat, read-out: DGKAP1 Lucif Reporter IC50, Table 4.
Setting [5] is: read-out: DGKAP1 Lucif Reporter IC50, Table 4.
Setting [6] is: Homo sapiens, Jurkat, read-out: API-Luciferase Reporter IC50, Table 3.

Sequence of human DGKα (P23743 other isoform, or with tags, fused parts or gaps): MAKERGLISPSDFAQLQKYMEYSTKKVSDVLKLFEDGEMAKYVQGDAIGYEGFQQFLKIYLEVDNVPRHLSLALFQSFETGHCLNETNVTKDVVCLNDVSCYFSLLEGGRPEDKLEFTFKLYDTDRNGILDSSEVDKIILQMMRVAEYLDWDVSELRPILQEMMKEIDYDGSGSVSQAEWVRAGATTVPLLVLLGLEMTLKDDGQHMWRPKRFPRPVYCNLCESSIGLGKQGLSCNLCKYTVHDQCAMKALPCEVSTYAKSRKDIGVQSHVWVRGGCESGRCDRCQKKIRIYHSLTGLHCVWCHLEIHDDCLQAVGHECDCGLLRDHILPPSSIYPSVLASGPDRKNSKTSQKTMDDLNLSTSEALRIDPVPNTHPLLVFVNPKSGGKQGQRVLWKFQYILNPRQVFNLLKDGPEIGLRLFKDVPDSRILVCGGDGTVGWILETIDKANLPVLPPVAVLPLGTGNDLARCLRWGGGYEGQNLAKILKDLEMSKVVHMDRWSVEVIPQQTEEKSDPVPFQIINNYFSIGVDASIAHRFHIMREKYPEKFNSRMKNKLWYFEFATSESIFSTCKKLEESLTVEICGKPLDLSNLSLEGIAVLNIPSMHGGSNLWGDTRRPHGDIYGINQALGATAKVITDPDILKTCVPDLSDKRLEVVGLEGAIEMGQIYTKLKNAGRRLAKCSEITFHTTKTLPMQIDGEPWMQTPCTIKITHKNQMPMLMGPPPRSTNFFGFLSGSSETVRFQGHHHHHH

Broadly, the IC50 is the concentration that gives 50% inhibition. As to `C#CCn1c(=O)c([N+](=O)[O-])c(N2CCN(C(c3ccc(F)cc3)C3CC3)CC2)c2nc(C#N)ccc21` (single isomer, unassigned) [Example 143, 8-(4-(cyclopropyl(4-fluorophenyl)methyl)piperazin-1-yl)-7-nitro-6-oxo-5-(prop-2-yn-1-yl)-5,6-dihydro-1,5-naphthyridine-2-carbonitrile], the IC50 in test [1] amounted to 3400 nM; in test [2] (setting [4]) it was 1280 nM; in test [3], 1410 nM.
Regarding `Cn1c(=O)c(C#N)c(N2CCN(C(CC(C)(C)C)c3ccc(F)cc3)CC2)c2nc(Cl)ccc21` (single isomer, unassigned) [Example 378, 6-chloro-4-{4-[1-(4-fluorophenyl)-3,3-dimethylbutyl]piperazin-1-yl}-1-methyl-2-oxo-1,2-dihydro-1,5-naphthyridine-3-carbonitrile], the IC50 in test [1] was found to be 2200 nM; in test [2] (setting [5]), 10000 nM; in test [3] it was 10000 nM.
In the case of `Cn1c(=O)c(C#N)c(N2CCN(C(c3ccc(F)cc3)C3CCC3)CC2)c2nc(Cl)ccc21` (single isomer, unassigned) [Example 383, 6-chloro-4-{4-[cyclobutyl(4-fluorophenyl)methyl]piperazin-1-yl}-1-methyl-2-oxo-1,2-dihydro-1,5-naphthyridine-3-carbonitrile], the 50% inhibitory concentration (IC50) came to 220 nM in test [1], 10000 nM in test [2] (setting [5]) and 10000 nM in test [3].
Regarding `Cn1c(=O)c([N+](=O)[O-])c(N2CCN(CC(O)c3ccc(F)cc3)CC2)c2nc(C#N)ccc21` (stereo not drawn) [Example 36, 8-{4-[2-(4-fluorophenyl)-2-hydroxyethyl]piperazin-1-yl}-5-methyl-7-nitro-6-oxo-5,6-dihydro-1,5-naphthyridine-2-carbonitrile], the IC50 in test [1] was 6800 nM; in test [2] (setting [6]), 1600 nM; in test [3] it was 10000 nM.
For `CCCCn1c(=O)c([N+](=O)[O-])c(N2CCN(C(c3ccccc3)c3ccccc3)CC2)c2ncccc21` [Example 177, 4-(4-benzhydrylpiperazin-1-yl)-1-butyl-3-nitro-1,5-naphthyridin-2(1H)-one], the IC50 is greater than 240000 nM in test [1], 10000 nM in test [2] (setting [4]) and 10000 nM in test [3].
Consider `Cc1ccc2c(n1)c(N1CCN(C(C)c3ccc(F)cc3)CC1)c(Br)c(=O)n2C` (stereo not drawn) [Example 224, 3-bromo-4-(4-(1-(4-fluorophenyl)ethyl)piperazin-1-yl)-1,6-dimethyl-1,5-naphthyridin-2(1H)-one], for which the IC50 in test [1] was determined as 140 nM; in test [2] (setting [4]), 10000 nM; in test [3], 10000 nM.
`Cc1ccc(CN2CCN(c3c(C#N)c(=O)n(C)c4ccc(Br)nc34)CC2)c(O)c1` [Example 372, 6-bromo-4-{4-[(2-hydroxy-4-methylphenyl)methyl]piperazin-1-yl}-1-methyl-2-oxo-1,2-dihydro-1,5-naphthyridine-3-carbonitrile]: the IC50 in test [1] was determined as 78 nM; in test [2] (setting [6]), 140 nM; in test [3], 2550 nM.
In the same order, the values of `Cc1ccc(CN2CCN(c3c(C#N)c(=O)n(C)c4ccc(Cl)nc34)CC2)cc1` [Example 386, 6-chloro-1-methyl-4-{4-[(4-methylphenyl)methyl]piperazin-1-yl}-2-oxo-1,2-dihydro-1,5-naphthyridine-3-carbonitrile] are 260 nM, 50 nM and 590 nM.
The like results for `Cc1ccc2c(n1)c(N1CCN(Cc3cccc(Cl)c3O)CC1)c(C#N)c(=O)n2C` [Example 389, 4-{4-[(3-chloro-2-hydroxyphenyl)methyl]piperazin-1-yl}-1,6-dimethyl-2-oxo-1,2-dihydro-1,5-naphthyridine-3-carbonitrile] were, in that order, 1400 nM, 650 nM and 5050 nM.
In the same order, the values of `Cc1cccc(CN2CCN(c3c(C#N)c(=O)n(C)c4ccc(Cl)nc34)CC2)c1O` [Example 391, 6-chloro-4-{4-[(2-hydroxy-3-methylphenyl)methyl]piperazin-1-yl}-1-methyl-2-oxo-1,2-dihydro-1,5-naphthyridine-3-carbonitrile] are 1800 nM, 70 nM and 730 nM.
As for `Cn1c(=O)c([N+](=O)[O-])c(N2CCN(Cc3cccc4ccccc34)CC2)c2nc(C#N)ccc21` [Example 415, 5-methyl-8-{4-[(naphthalen-1-yl)methyl]piperazin-1-yl}-7-nitro-6-oxo-5,6-dihydro-1,5-naphthyridine-2-carbonitrile], the IC50 in test [1] was 650 nM; in test [2] (setting [4]) it was 420 nM; in test [3] it was 10000 nM.
As to `Cc1ccc(CN2CCN(c3c(C#N)c(=O)n(C)c4ccc(Cl)nc34)CC2)c(F)c1` [Example 423, 6-chloro-4-{4-[(2-fluoro-4-methylphenyl)methyl]piperazin-1-yl}-1-methyl-2-oxo-1,2-dihydro-1,5-naphthyridine-3-carbonitrile], the IC50 in test [1] amounted to 2200 nM; in test [2] (setting [6]) it was 1880 nM; in test [3], 700 nM.
In the case of `COc1cc(C#N)ccc1CN1CCN(c2c(C#N)c(=O)n(C)c3ccc(Cl)nc23)CC1` [Example 424, 6-chloro-4-{4-[(4-cyano-2-methoxyphenyl)methyl]piperazin-1-yl}-1-methyl-2-oxo-1,2-dihydro-1,5-naphthyridine-3-carbonitrile], the IC50 is 1400 nM in test [1], 10000 nM in test [2] (setting [6]) and 10000 nM in test [3].
